# Laboratory results published in PubChem BioAssay AID1033 (Sanford-Burnham Center for Chemical Genomics, 2008).
# Active and inactive are the calls of the source. No rule for the calls is given here.
# Biological target: Chaperone protein DnaK (Escherichia coli (strain K12)) (UniProt P0A6Y8)
# Assay: binders of DnaK substrate-binding domain, biophysical, NMR, chaperone (AID 1033)
# Conditions: Purified DnaK SBD, NMR ligand binding
# Chaperone protein DnaK (Escherichia coli (strain K12)), sequence (P0A6Y8 whole entry, looked up, the tested form may be a part): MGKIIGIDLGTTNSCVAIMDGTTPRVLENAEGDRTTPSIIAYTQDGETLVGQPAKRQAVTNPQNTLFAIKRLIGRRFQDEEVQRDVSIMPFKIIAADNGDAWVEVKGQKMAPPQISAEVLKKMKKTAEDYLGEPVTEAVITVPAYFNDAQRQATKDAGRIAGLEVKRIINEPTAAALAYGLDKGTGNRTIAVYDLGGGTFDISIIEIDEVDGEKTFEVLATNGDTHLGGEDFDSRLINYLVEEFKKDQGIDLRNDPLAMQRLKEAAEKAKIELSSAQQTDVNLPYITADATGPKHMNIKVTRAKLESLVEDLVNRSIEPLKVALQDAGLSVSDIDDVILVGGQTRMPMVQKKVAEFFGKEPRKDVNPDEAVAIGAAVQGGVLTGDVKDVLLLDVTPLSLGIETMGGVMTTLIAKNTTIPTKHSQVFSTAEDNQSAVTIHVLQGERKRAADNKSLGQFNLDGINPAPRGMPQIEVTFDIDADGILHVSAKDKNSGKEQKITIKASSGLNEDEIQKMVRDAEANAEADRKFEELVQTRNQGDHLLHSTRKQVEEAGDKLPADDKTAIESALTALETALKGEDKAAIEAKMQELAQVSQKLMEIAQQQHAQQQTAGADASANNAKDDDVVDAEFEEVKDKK
row,Structure (SMILES),Kd
1,Cc1cc(SCC(=O)c2ccccc2)nc(=O)[nH]1,> 4 mM (inactive)
2,O=C(O)CCn1c(=O)oc2ccccc21,> 4 mM (inactive)
3,COc1cc2c(cc1OC)C1(O)C(=O)c3ccc(O)c(C(=O)O)c3OC1CO2 (configuration not stated),> 4 mM (inactive)
4,CC12CCC(O)CC1CCC1C2[C@H](O)CC2(C)C(C3=CC(=O)OC3)CCC12O (some centres not stated),> 4 mM (inactive)
5,Cc1cc(=O)[nH]c(NCC(=O)O)n1,> 4 mM (inactive)
6,CSc1nc(NC(C)(C)C)nc(N2CCOCC2)n1,> 4 mM (inactive)
7,O=C(OC[C@H]1O[C@H](OC(=O)c2cc(O)c(O)c(OC(=O)c3cc(O)c(O)c(O)c3)c2)[C@H](OC(=O)c2cc(O)c(O)c(OC(=O)c3cc(O)c(O)c(O)c3)c2)[C@@H](OC(=O)c2cc(O)c(O)c(OC(=O)c3cc(O)c(O)c(O)c3)c2)[C@@H]1OC(=O)c1cc(O)c(O)c(OC(=O)c2cc(O)c(O)c(O)c2)c1)c1cc(O)c(O)c(OC(=O)c2cc(O)c(O)c(O)c2)c1,> 4 mM (inactive)
8,COC(=O)C1=C(C)N(Cc2ccco2)C(=O)C1,> 4 mM (inactive)
9,Cc1occc1C(=O)Nc1ccc(C(N)=O)cc1,> 4 mM (inactive)
10,C=C1CCC2[C@](C)(CO)[C@H](O)CC[C@@]2(C)[C@@H]1C/C=C1/C(=O)OC[C@H]1O (some centres not stated),> 4 mM (inactive)
11,O=c1c(O)cc([C@H]2Oc3cc(O)cc(O)c3C[C@H]2O)cc2c([C@H]3Oc4cc(O)cc(O)c4C[C@H]3O)cc(O)c(O)c12,> 4 mM (inactive)
12,Cc1ccc(O)c(NC(=O)c2ccco2)c1,> 4 mM (inactive)
13,NC(=O)c1ccc(C(N)=O)c(-c2ccccc2)c1,> 4 mM (inactive)
14,O=C(NCc1cccc(Cl)c1)c1ccco1,> 4 mM (inactive)
15,Cn1cnnc1Sc1ncnc(N)c1[N+](=O)[O-],> 4 mM (inactive)
16,S=c1[nH]c2cccnc2[nH]1,> 4 mM (inactive)
17,O=c1c2ccccc2nc(-c2ccco2)n1-c1nccs1,> 4 mM (inactive)
18,COc1cc(C(C)=O)ccc1OC(=O)N1CCOCC1,> 4 mM (inactive)
19,Nc1c(/C=C2\C=Nc3ccccc32)c(=O)nc2scnn12,> 4 mM (inactive)
20,O=C(NN1C(=O)CSC1=S)c1ccccc1,> 4 mM (inactive)
21,C=C(C)[C@@H]1CC[C@]2(CO)CC[C@]3(C)[C@H](CCC4[C@@]5(C)CC[C@H](O)C(C)(C)C5CC[C@]43C)C12 (some centres not stated),> 4 mM (inactive)
22,CCCCCCCCCCCCCCC(C(=O)O)C(O)(CC(=O)OC)C(=O)O (configuration not stated),> 4 mM (inactive)

row,Structure (SMILES),Kd
1,O=c1[nH]cc(NC(=S)N2CCOCC2)c(=O)[nH]1,> 4 mM (inactive)
2,Cc1ccc(-c2nc(-c3cccnc3)no2)cc1,> 4 mM (inactive)
3,CC1(C)C[C@@H]2C(=O)CC[C@H]3O[C@]3(C)CC[C@H]21,> 4 mM (inactive)
4,COC(=O)c1sccc1S(=O)(=O)N1CCCC1,> 4 mM (inactive)
5,Cc1ccccc1NC(=O)C1CC(=O)N=C(N)S1 (configuration not stated),> 4 mM (inactive)
6,CC(O)C(=O)N/N=C/c1ccccc1 (configuration not stated),> 4 mM (inactive)
7,O=c1oc2c(O)c(O)cc3c(=O)oc4c(O)c(O)cc1c4c23,> 4 mM (inactive)
8,COc1nc(C#N)c(N2CCOCC2)o1,> 4 mM (inactive)
9,CC(=O)c1cc(C)ccc1O,> 4 mM (inactive)
10,Nc1ccc2c(c1)COc1ccccc1O2,> 4 mM (inactive)
11,CN(C)C(=O)Nc1ccc2c(c1)nnn2C,> 4 mM (inactive)
12,Nc1nnc(C(F)(F)F)s1,> 4 mM (inactive)
13,CC1(C)Cc2c(C#N)c(N)n(-c3ccccc3)c(=O)c2CO1,> 4 mM (inactive)
14,OCCNc1ccccn1,> 4 mM (inactive)
15,CCn1nnc(NC(=O)c2cc3ccccc3o2)n1,> 4 mM (inactive)
16,O=c1[nH]c(=O)n(-c2ccc(F)cc2)c(O)c1/C=C1/C=CC=N1,> 4 mM (inactive)
17,O=C(NCc1ccccn1)c1ccc(Br)s1,> 4 mM (inactive)
18,NC(CC(=O)O)c1ccccc1 (configuration not stated),> 4 mM (inactive)
19,O=c1cc(-c2ccccc2)oc2cc(O)c(O)c(O)c12,> 4 mM (inactive)
20,CS(=O)(=O)c1ccc(N)cc1,> 4 mM (inactive)
21,CN1CCn2c1nc(N1CCCCC1)nc2=O,> 4 mM (inactive)
22,Cc1cc(C(=O)N2CCN(c3ncccn3)CC2)cs1,> 4 mM (inactive)

row,Structure (SMILES),Kd
1,C=C1CCC(=O)C(C)CCC2C1CC2(C)C (configuration not stated),> 4 mM (inactive)
2,CC1(C)Oc2ccc3ccc(=O)oc3c2CC1O (configuration not stated),> 4 mM (inactive)
3,CCOc1ccc(-c2n[nH]c(=S)n2C)cc1,> 4 mM (inactive)
4,CC(CCC(=O)O)[C@H]1CCC2C3CC[C@@H]4CCCC[C@]4(C)C3CC[C@@]21C (some centres not stated),> 4 mM (inactive)
5,Nc1cc(C(=O)O)ccc1N1CCCCCC1,> 4 mM (inactive)
6,CC(C)CC(=O)NC1CCSC1=O (configuration not stated),> 4 mM (inactive)
7,Cc1cc(O)c(C)c(O)c1C(=O)O,> 4 mM (inactive)
8,CC12CCC3C(CC3(C)C)C(C)(CCC1=O)O2 (configuration not stated),> 4 mM (inactive)
9,O=C(NCCO)c1cc2ccccc2c(=O)s1,> 4 mM (inactive)
10,N/N=C1\CCCc2c1no[n+]2[O-],> 4 mM (inactive)
11,O=c1ccn(Cc2ccccc2)c(=O)[nH]1,> 4 mM (inactive)
12,NC(=O)C1CCCN1S(=O)(=O)c1ccc(F)cc1 (configuration not stated),> 4 mM (inactive)
13,CC(=O)Nc1ccn(Cc2c(F)cccc2Cl)n1,> 4 mM (inactive)
14,Cc1cc(=O)n2nc(-c3ccccc3)sc2n1,> 4 mM (inactive)
15,O=c1cnnc(SCCc2ccccc2)[nH]1,> 4 mM (inactive)
16,CC(=O)Nc1nc(C)c(C(C)=O)s1,> 4 mM (inactive)
17,COc1cc2c(cc1OC)C1=C(C#N)CCC(=O)N1CC2,> 4 mM (inactive)
18,CC[C@@]1(O)C[C@H](O[C@H]2C[C@H](N(C)C)[C@H](O)[C@H](C)O2)c2c(cc3c(c2O)C(=O)c2c(O)cccc2C3=O)[C@H]1C(=O)OC,> 4 mM (inactive)
19,COc1ccc(C)cc1S(=O)(=O)N1CCCCC1,> 4 mM (inactive)
20,NC(=O)CSCc1c(Cl)cccc1Cl,> 4 mM (inactive)
21,Cc1cc(C(=O)Nc2ccccn2)no1,> 4 mM (inactive)
22,O=C(NCc1cccs1)c1nn2cccnc2c1Cl,> 4 mM (inactive)

row,Structure (SMILES),Kd
1,O=C(O)Cn1cc(C(F)(F)F)ccc1=O,> 4 mM (inactive)
2,O=P(c1ccccc1)(c1ccccc1)C1CCOCC1,> 4 mM (inactive)
3,C[C@@H]1OC(O[C@H]2[C@H](OC(=O)[C@]34CCC(C)(C)CC3C3=CCC5[C@@]6(C)CC[C@H](OC7O[C@@H](C)[C@H](O[C@@H]8OC[C@@H](O)[C@H](O)[C@H]8O)[C@@H](O)[C@H]7O)C(C)(C)C6CC[C@@]5(C)[C@]3(C)CC4O)OC[C@H](O)[C@H]2O)[C@H](O)[C@H](O)[C@H]1O[C@@H]1O[C@H](CO)[C@@H](O)[C@H](O)[C@H]1O (some centres not stated),> 4 mM (inactive)
4,CC1(C)C(=O)[C@@H]2C[C@@]3(O)C4=CC(=O)O[C@@H](c5ccoc5)[C@]4(C)CCC3C(C)(C2=O)[C@H]1CC(=O)O (some centres not stated),> 4 mM (inactive)
5,NC1C2CC3CC1CC(O)(C3)C2 (configuration not stated),> 4 mM (inactive)
6,Cc1ccc(SCC(=O)N2CCOCC2)cc1,> 4 mM (inactive)
7,Nc1ccc2c(C(F)(F)F)cc(=O)oc2c1,> 4 mM (inactive)
8,O=C(O)c1ccc2ccccc2n1,> 4 mM (inactive)
9,c1ccc2c(NC3=NCCS3)cccc2c1,> 4 mM (inactive)
10,Cc1ccccc1N1C(=O)CC(=O)NC1=O,> 4 mM (inactive)
11,COc1ccc2c(c1OC)OC[C@@H](c1ccc(OC)c(OC)c1OC)C2,> 4 mM (inactive)
12,c1ccc(Cc2nnc3sc(-c4cccnc4)nn23)cc1,> 4 mM (inactive)
13,c1ccc(-c2noc(-c3cccnc3)n2)nc1,> 4 mM (inactive)
14,CCSc1n[nH]c(=O)[nH]c1=O,> 4 mM (inactive)
15,CC(=O)O[C@@H]1CC2C(C)(C)C(=O)C=C[C@]2(C)C2CC[C@@]3(C)[C@H](c4ccoc4)OC(=O)[C@H]4O[C@]43[C@@]21C (some centres not stated),> 4 mM (inactive)
16,Cc1nn2c(nc1=O)SCC(c1ccccc1)=N2,> 4 mM (inactive)
17,Clc1ccc2c(N3CCNCC3)ccnc2c1,> 4 mM (inactive)
18,O=C(O)c1cncc(-c2ccccc2)c1,> 4 mM (inactive)
19,CC(C)CC(=O)Nc1c[nH]c(=O)[nH]c1=O,> 4 mM (inactive)
20,COc1ccc(-c2noc(-c3ccco3)n2)cc1OC,> 4 mM (inactive)
21,COC(=O)C[C@H]1C(C)(C)C(=O)[C@@H]2CC3C4=CC(=O)O[C@@H](c5ccoc5)[C@]4(C)CCC3C1(C)C2=O (some centres not stated),> 4 mM (inactive)
22,CN1CCN(CC(O)c2ccccc2)CC1 (configuration not stated),> 4 mM (inactive)

row,Structure (SMILES),Kd
1,CC(=O)c1cnc2nc(C(F)(F)F)nn2c1C,> 4 mM (inactive)
2,CN1CCN(c2cc(=O)n(C)c(=O)[nH]2)CC1,> 4 mM (inactive)
3,Cc1[nH]c2ccccc2c1C(=O)CSc1ncn[nH]1,> 4 mM (inactive)
4,Nc1nnc(Cc2ccc(Cl)cc2)s1,> 4 mM (inactive)
5,NC(=O)C1CCN(c2ncnc(N)c2[N+](=O)[O-])CC1,> 4 mM (inactive)
6,Cc1cc(C)n(-c2ccc(N)cc2)n1,> 4 mM (inactive)
7,O=S1(=O)NC(=NCc2ccccc2)c2ccccc21,> 4 mM (inactive)
8,Cc1cc(C)nc(/N=C(/N)N2CCN(C)CC2)n1,> 4 mM (inactive)
9,Cc1cc(O)c2c(c1O)C(=O)c1c(O)cc(C)c(O)c1C2=O,> 4 mM (inactive)
10,CC[C@H]1CN2CCC1C[C@@H]2[C@@H](O)c1ccnc2ccc(OC)cc12 (some centres not stated),> 4 mM (inactive)
11,O=C(O)CCSc1nc2ccccc2s1,> 4 mM (inactive)
12,Cc1ccc(CN2CCNC(=O)C2CC(=O)O)o1 (configuration not stated),> 4 mM (inactive)
13,COc1ccc(NC(=O)CSc2nccc(=O)[nH]2)cc1,> 4 mM (inactive)
14,COc1ccccc1Nc1nncc(=O)[nH]1,> 4 mM (inactive)
15,COC(=O)c1c(OC)cc2c(c1C)Oc1c(Cl)c(O)c(Cl)c(C)c1C(=O)O2,> 4 mM (inactive)
16,Cc1nn2c(=O)/c(=C/c3cccc(F)c3)sc2nc1=O,> 4 mM (inactive)
17,O=C(O)CCNc1n[nH]c(=O)[nH]c1=O,> 4 mM (inactive)
18,Cc1cc(=O)[nH]c(N2CCN(Cc3ccccc3)CC2)n1,> 4 mM (inactive)
19,COc1ccc(-c2cc3nc4n(c(=O)c3s2)CCC4)cc1,> 4 mM (inactive)
